Test results from patent US12655116B2, “Substituted isophthalic acid diamides” (Bayer Aktiengesellschaft, priority 2020, dated 2026).

Experiments:
AMARE [1] = experiment: Pre-emergence herbicidal action against AMARE; format: in vivo, Amaranthus retroflexus
How it was run: (§1)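 Pre-emergence soil-surface spray of formulated compound (WP or EC; 600 to 800 l/ha; 0.2% wetting agent) over seeds sown in sandy loam. After 3 weeks under greenhouse conditions, damage is estimated visually in percent against untreated plants.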

PHBPU [2] = experiment: Post-emergence herbicidal action against PHBPU; format: in vivo, Pharbitis purpurea; conditions: dosage 20 g/ha
How it was run: (§2)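 Greenhouse plants in sandy loam were sprayed at the one-leaf stage, 2 to 3 weeks after sowing, with WP or EC formulations as aqueous suspension or emulsion (600 to 800 l/ha water, 0.2% wetting agent). Visual damage was scored about 3 weeks later versus untreated controls, 0% = like control, 100% = dead.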

MATIN [3] = experiment: Post-emergence herbicidal action against MATIN; format: in vivo, Matricaria inodora; conditions: dosage 20 g/ha
How it was run: as §2

ALOMY [4] = experiment: Pre-emergence herbicidal action against ALOMY; format: in vivo, Alopecurus myosuroides; conditions: 80 g/ha, pre-emergence, scored visually after 3 weeks vs untreated controls (100% = plants have died, 0% = like control plants)
How it was run: as §1

POLCO [5] = experiment: Post-emergence herbicidal action against POLCO; format: in vivo, Polygonum convolvulus; conditions: dosage 20 g/ha
How it was run: as §2

VIOTR [6] = experiment: Pre-emergence herbicidal action against VIOTR; format: in vivo, Viola tricolor
How it was run: as §1

ABUTH [7] = experiment: Post-emergence herbicidal action against ABUTH; format: in vivo, Abutilon theophrasti; conditions: visual assessment about 3 weeks after treatment vs untreated controls
How it was run: as §2

AVEFA [8] = experiment: Post-emergence herbicidal action against AVEFA; format: in vivo, Avena fatua; conditions: visual assessment about 3 weeks after treatment, 100% = plants have died, 0% = like control plants
How it was run: as §2

ECHCG [9] = experiment: Pre-emergence herbicidal action against ECHCG; format: in vivo, Echinochloa crus-galli; conditions: 80 g/ha
How it was run: as §1

DIGSA [10] = experiment: Pre-emergence herbicidal action against DIGSA; format: in vivo, Digitaria sanguinalis
How it was run: as §1

AVEFA [11] = experiment: Pre-emergence herbicidal action against AVEFA; format: in vivo, Avena fatua; conditions: pre-emergence
How it was run: as §1

ECHCG [12] = experiment: Post-emergence herbicidal action against ECHCG; format: in vivo, Echinochloa crus-galli
How it was run: as §2

SETVI [13] = experiment: Post-emergence herbicidal action against SETVI; format: in vivo, Setaria viridis
How it was run: as §2

ABUTH [14] = experiment: Pre-emergence herbicidal action against ABUTH; format: in vivo, Abutilon theophrasti
How it was run: as §1

SETVI [15] = experiment: Pre-emergence herbicidal action against SETVI; format: in vivo, Setaria viridis
How it was run: as §1

MATIN [16] = experiment: Pre-emergence herbicidal action against MATIN; format: in vivo, Matricaria inodora
How it was run: as §1

VIOTR [17] = experiment: Post-emergence herbicidal action against VIOTR; format: in vivo, Viola tricolor; conditions: Viola tricolor, 504 h
How it was run: as §2

AMARE [18] = experiment: Post-emergence herbicidal action against AMARE; format: in vivo, Amaranthus retroflexus; conditions: Amaranthus retroflexus, 504 h, 20 g/ha, visual assessment about 3 weeks after treatment, 100% = plants have died, 0% = like control plants
How it was run: as §2

PHBPU [19] = experiment: Pre-emergence herbicidal action against PHBPU; format: in vivo, Pharbitis purpurea; conditions: Ipomoea purpurea, 504 h, dosage 80 g/ha
How it was run: as §1

DIGSA [20] = experiment: Post-emergence herbicidal action against DIGSA; format: in vivo, Digitaria sanguinalis; conditions: Digitaria sanguinalis, 504 h
How it was run: as §2

VERPE [21] = experiment: Post-emergence herbicidal action against VERPE; format: in vivo, Veronica persica; conditions: Veronica persica, 504 h, 20 g/ha
How it was run: as §2

VERPE [22] = experiment: Pre-emergence herbicidal action against VERPE; format: in vivo, Veronica persica; conditions: Veronica persica, 504 h, dosage 80 g/ha
How it was run: as §1

POLCO [23] = experiment: Pre-emergence herbicidal action against POLCO; format: in vivo, Polygonum convolvulus; conditions: Fallopia convolvulus, 504 h, dosage 80 g/ha
How it was run: as §1

ALOMY [24] = experiment: Post-emergence herbicidal action against ALOMY; format: in vivo, Alopecurus myosuroides; conditions: Alopecurus myosuroides, 504 h, dosage 20 g/ha, visual assessment about 3 weeks after treatment vs untreated controls
How it was run: as §2

[25] = 80 g/ha, scored visually after 3 weeks vs untreated controls (100% = plants have died, 0% = like control plants)
[26] = Setaria viridis, 504 h, dosage 20 g/ha

SMILES: Cc1c(C(=O)Nc2nnnn2C)ccc(C(F)(F)F)c1C(=O)NCC1CC1 [Example 1-28]
- Pre-emergence action against AMARE in % (AMARE [1]; 20 g/ha, scored visually after 3 weeks vs untreated controls, 100% = plants have died, 0% = like control plants): 100%
- Pre-emergence action against AMARE in % (AMARE [1]; [25]): 100%
- Post-emergence action against PHBPU in % (PHBPU [2]): 90%
- Post-emergence action against MATIN in % (MATIN [3]): 80%
- Pre-emergence action against ALOMY (herbicidal activity) (ALOMY [4]): 90%
- Post-emergence action against POLCO in % (POLCO [5]): 80%
- Pre-emergence action against VIOTR in % (VIOTR [6]; dosage 20 g/ha): 100%
- Pre-emergence action against VIOTR in % (VIOTR [6]; dosage 80 g/ha): 100%
- Post-emergence action against ABUTH in % (ABUTH [7]; dosage 5 g/ha): 80%
- Post-emergence action against ABUTH in % (ABUTH [7]; dosage 20 g/ha): 80%
- Post-emergence action at 5 g/ha against AVEFA in % (AVEFA [8]; 5 g/ha): 80%
- Post-emergence action at 20 g/ha against AVEFA in % (AVEFA [8]; 20 g/ha): 80%
- Pre-emergence action against ECHCG in % (ECHCG [9]): 100%
- Pre-emergence action against DIGSA in % (DIGSA [10]; dosage 20 g/ha): 100%
- Pre-emergence action against DIGSA in % (DIGSA [10]; dosage 80 g/ha): 100%
- Pre-emergence action against AVEFA in % (AVEFA [11]; 80 g/ha): 100%
- Post-emergence action against ECHCG in % (ECHCG [12]; dosage 5 g/ha): 80%
- Post-emergence action against ECHCG in % (ECHCG [12]; dosage 20 g/ha): 90%
- Post-emergence action against SETVI in % (SETVI [13]; dosage 5 g/ha): 80%
- Post-emergence action against SETVI in % (SETVI [13]; dosage 20 g/ha): 80%
- Pre-emergence action against ABUTH (herbicidal activity) (ABUTH [14]; [25]): 100%
- Pre-emergence action against ABUTH (herbicidal activity in percent) (ABUTH [14]; dosage 20 g/ha, scored visually after 3 weeks vs untreated controls, 100% = plants have died, 0% = like control plants): 90%
- Pre-emergence action against SETVI in % (SETVI [15]; dosage 80 g/ha): 100%
- Pre-emergence action against MATIN in % (MATIN [16]; dosage 20 g/ha): 100%
- Pre-emergence action against MATIN in % (MATIN [16]; dosage 80 g/ha): 100%

SMILES: CNC(=O)c1c(C(F)(F)F)ccc(C(=O)Nc2nnnn2C)c1Br [Example 1-207]
- pest or weed control at 20 g/ha (AMARE [1]; Amaranthus retroflexus, 504 h, 20 g/ha, scored visually after 3 weeks vs untreated controls, 100% = plants have died, 0% = like control plants): 100%
- pest or weed control at 80 g/ha (AMARE [1]; Amaranthus retroflexus, 504 h, 80 g/ha, scored visually after 3 weeks vs untreated controls, 100% = plants have died, 0% = like control plants): 100%
- pest or weed control at 20 g/ha (PHBPU [2]; Ipomoea purpurea, 504 h): 80%
- pest or weed control at 20 g/ha (MATIN [3]; Tripleurospermum inodorum, 504 h): 90%
- pest or weed control at 5 g/ha (VIOTR [17]; 5 g/ha): 100%
- pest or weed control at 20 g/ha (VIOTR [17]; 20 g/ha): 100%
- pest or weed control at 80 g/ha (ALOMY [4]; Alopecurus myosuroides, 504 h): 100%
- pest or weed control at 20 g/ha (POLCO [5]; Fallopia convolvulus, 504 h): 100%
- pest or weed control at 20 g/ha (AMARE [18]): 100%
- pest or weed control at 80 g/ha (PHBPU [19]): 80%
- pest or weed control at 20 g/ha (VIOTR [6]; Viola tricolor, 504 h, dosage 20 g/ha): 100%
- pest or weed control at 80 g/ha (VIOTR [6]; Viola tricolor, 504 h, dosage 80 g/ha): 100%
- pest or weed control at 5 g/ha (DIGSA [20]; 5 g/ha): 90%
- pest or weed control at 20 g/ha (DIGSA [20]; 20 g/ha): 100%
- pest or weed control at 5 g/ha (ABUTH [7]; Abutilon theophrasti, 504 h, dosage 5 g/ha): 80%
- pest or weed control at 20 g/ha (ABUTH [7]; Abutilon theophrasti, 504 h, dosage 20 g/ha): 90%
- pest or weed control at 80 g/ha (ECHCG [9]; Echinochloa crus-galli, 504 h): 90%
- pest or weed control at 20 g/ha (VERPE [21]): 90%
- pest or weed control at 20 g/ha (DIGSA [10]; Digitaria sanguinalis, 504 h, dosage 20 g/ha): 100%
- pest or weed control at 80 g/ha (DIGSA [10]; Digitaria sanguinalis, 504 h, dosage 80 g/ha): 100%
- pest or weed control at 80 g/ha (AVEFA [11]; Avena fatua, 504 h, 80 g/ha): 90%
- pest or weed control at 20 g/ha (AVEFA [11]; Avena fatua, 504 h, 20 g/ha, scored visually after 3 weeks, 100% = plants have died, 0% = like control plants): 80%
- pest or weed control at 80 g/ha (VERPE [22]): 100%
- pest or weed control at 20 g/ha (ECHCG [12]; Echinochloa crus-galli, 504 h, dosage 20 g/ha): 80%
- pest or weed control at 5 g/ha (SETVI [13]; Setaria viridis, 504 h, dosage 5 g/ha): 100%
- pest or weed control at 20 g/ha (SETVI [13]; [26]): 100%
- pest or weed control at 80 g/ha (ABUTH [14]; Abutilon theophrasti, 504 h, 80 g/ha, scored visually after 3 weeks vs untreated controls (100% = plants have died, 0% = like control plants)): 100%
- pest or weed control at 20 g/ha (ABUTH [14]; Abutilon theophrasti, 504 h, dosage 20 g/ha, scored visually after 3 weeks vs untreated controls, 100% = plants have died, 0% = like control plants, read-out: Pre-emergence action against ABUTH (herbicidal activity in percent)): 100%
- pest or weed control at 20 g/ha (SETVI [15]; [26]): 100%
- pest or weed control at 80 g/ha (SETVI [15]; Setaria viridis, 504 h, dosage 80 g/ha): 100%
- pest or weed control at 20 g/ha (MATIN [16]; Tripleurospermum inodorum, 504 h, dosage 20 g/ha): 90%
- pest or weed control at 80 g/ha (MATIN [16]; Tripleurospermum inodorum, 504 h, dosage 80 g/ha): 100%
- pest or weed control at 80 g/ha (POLCO [23]): 90%
- pest or weed control at 20 g/ha (ALOMY [24]): 90%
